Calls of active or inactive are those of the source. The calls are words filed in the database; no cut-off is given here. Numbered stars: 1 amine (or outer) side, 2 acyl side, 3 side chain; on linkers, the order of the positions; unused ones are H or OH. Bridge positions count the residues as written; N and C are the ends. Square brackets hold non-standard residues; d marks the D form. Peptide text beside a SMILES is read from it. I, II: the chains in the order shown. X2 = NCCCC[C@H](N[*:2])C(=O)C1CCCCN([C@@H](CCC(=O)O)C(=O)[*:1])C(=O)C1; X1 = O=C(CC[C@@H]1CCCN1[*:1])[*:2]; β3hI = CC[C@H](C)[C@H](N)CC(=O)O; β3hQ = NC(=O)CC[C@H](N)CC(=O)O; β3hK = NCCCC[C@H](N)CC(=O)O; β3hS = N[C@@H](CO)CC(=O)O; Nle = CCCC[C@H](N)C(=O)O; β3hA = C[C@H](N)CC(=O)O
Legend:
[1] = Selectivity index, ratio of LC50 for cytotoxicity against human THP1 cells to LC50 for leishmanicidal activity against Leishmania infantum MCAN/ES/89/IPZ229/1/89 promastigotes; format: toxicity, cell-based; conditions: THP-1 cells, read-out: RatioLC50
Leishmania infantum [2] = assay: Leishmanicidal activity against Leishmania infantum amastigotes after 24 hrs by propidium iodide staining based flow cytometry; format: functional
[3] = Cytotoxicity against human THP1 cells after 24 hrs by propidium iodide staining based flow cytometry; format: cell-based; conditions: THP-1 cells, read-out: LC50
Leishmania infantum [4] = assay: Leishmanicidal activity against Leishmania infantum MCAN/ES/89/IPZ229/1/89 promastigotes after 24 hrs by propidium iodide staining based flow cytometry; format: functional; conditions: MCAN/ES/89/IPZ229/1/89, 24 h
[5] = Selectivity index, ratio of LC50 for cytotoxicity against human THP1 cells to LC50 for leishmanicidal activity against Leishmania infantum amastigotes; format: toxicity, cell-based; conditions: THP-1 cells, read-out: RatioLC50
Proteinase K = Proteinase K (Engyodontium album, UniProt P06873); assay: Stability assessed as Tritirachium album proteinase K-mediated compound degradation by measuring half life at 50 uM by HPLC method; format: ADME; conditions: parengyodontium album
Sequence of Proteinase K (P06873 whole entry): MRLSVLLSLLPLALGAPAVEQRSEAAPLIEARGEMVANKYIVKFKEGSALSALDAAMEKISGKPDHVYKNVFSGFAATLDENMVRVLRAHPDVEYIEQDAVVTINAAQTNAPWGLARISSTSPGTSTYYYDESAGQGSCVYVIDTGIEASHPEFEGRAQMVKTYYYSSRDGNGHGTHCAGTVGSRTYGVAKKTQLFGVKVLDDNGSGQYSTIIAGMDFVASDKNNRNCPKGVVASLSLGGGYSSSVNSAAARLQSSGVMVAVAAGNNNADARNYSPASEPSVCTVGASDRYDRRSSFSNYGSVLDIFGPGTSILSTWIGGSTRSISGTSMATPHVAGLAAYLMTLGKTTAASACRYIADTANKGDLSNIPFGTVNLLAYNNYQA

Leishmania infantum [6] = assay: Leishmanicidal activity against Leishmania infantum amastigotes at 25 uM after 24 hrs by propidium iodide staining based flow cytometry; format: functional, organism-based
Trypanothione reductase [7] = target: T1, Trypanothione reductase (Leishmania infantum, UniProt A4HSF7); assay: Inhibition of dimerization of HIS/FLAG tagged Leishmania infantum trypanothione reductase incubated for 16 hrs in presence of dimerization buffer by ELISA
T1 sequence (A4HSF7 whole entry): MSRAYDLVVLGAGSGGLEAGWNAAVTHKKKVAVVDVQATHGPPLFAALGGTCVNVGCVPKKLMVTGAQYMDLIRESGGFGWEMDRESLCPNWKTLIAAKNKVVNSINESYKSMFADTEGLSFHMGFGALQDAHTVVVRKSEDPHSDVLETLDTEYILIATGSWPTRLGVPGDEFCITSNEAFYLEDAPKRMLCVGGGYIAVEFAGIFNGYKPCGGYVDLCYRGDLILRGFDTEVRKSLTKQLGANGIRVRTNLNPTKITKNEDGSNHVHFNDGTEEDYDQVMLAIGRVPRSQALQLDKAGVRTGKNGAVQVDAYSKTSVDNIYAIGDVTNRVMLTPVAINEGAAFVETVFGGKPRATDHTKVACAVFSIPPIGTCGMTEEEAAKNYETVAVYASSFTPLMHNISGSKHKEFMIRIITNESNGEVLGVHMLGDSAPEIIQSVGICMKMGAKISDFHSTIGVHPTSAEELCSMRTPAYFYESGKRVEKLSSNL

Trypanothione reductase [8] = target: T1, Trypanothione reductase; assay: Inhibition of oxidoreductase activity of recombinant Leishmania infantum trypanothione reductase pre-incubated for 10 mins before T[S]2 and NADPH addition
Leishmania infantum [9] = assay: Leishmanicidal activity against Leishmania infantum MCAN/ES/89/IPZ229/1/89 promastigotes at 25 uM after 24 hrs by propidium iodide staining based flow cytometry; format: functional, organism-based

Structure (SMILES) | selectivity ratio [1] | LC50 (Leishmania infantum [2]) [nM] | CC50 at 24 h [3] [nM] | LC50 (Leishmania infantum [4]) [nM] | selectivity ratio [5] | half-life at 50 µM (Proteinase K) [min] | Activity (Leishmania infantum [6]) | IC50 (Trypanothione reductase [7]) [nM] | IC50 (Trypanothione reductase [8]) [nM] | Activity (Leishmania infantum [9])
CCCCCCCCCCCCCCCCCCOC[C@H](COP(=O)([O-])OCC[N+](C)(C)C)OC [(R)-EDELFOSINE] | < 1 | 600 | 1000 | 9000 | 1.7 | – | – | – | – | –
CCCC[C@H](NC(=O)[C@H](CCCCN)NC(=O)[C@H](CC(C)C)NC(=O)C[C@H](CO)NC(=O)[C@@H](NC(=O)CNC(=O)[C@@H](NC(=O)C[C@H](CO)NC(=O)[C@H](CCC(N)=O)NC(=O)[C@@H](NC(=O)C[C@@H](NC(=O)[C@H](CCCCN)NC(=O)[C@@H]1CCCN1C(=O)[C@H](CCCNC(=N)N)NC(=O)[C@H](CCCNC(=N)N)NC(=O)[C@H](CCCNC(=N)N)NC(=O)[C@H](CCCNC(=N)N)NC(=O)[C@H](CCCNC(=N)N)NC(=O)[C@H](CCCNC(=N)N)NC(=O)[C@H](CCCNC(=N)N)NC(=O)[C@H](CCCNC(=N)N)NC(=O)[C@@H](N)CCCNC(=N)N)[C@@H](C)CC)[C@@H](C)CC)C(C)C)[C@@H](C)CC)C(N)=O (H-RRRRRRRRRPK[β3hI]IQ[β3hS]VGI[β3hS]LK[Nle]-NH2) | 5.9 | 1900 | 5800 | 980 | 3.1 | – | – | – | – | –
CC[C@H](C)[C@H](NC(=O)CNC(=O)[C@@H](NC(=O)[C@H](CO)NC(=O)[C@H](CCC(N)=O)NC(=O)[C@@H](NC(=O)[C@@H](NC(=O)[C@H](CCCCN)NC(=O)[C@@H]1CCCN1C(=O)[C@H](CCCNC(=N)N)NC(=O)[C@H](CCCNC(=N)N)NC(=O)[C@H](CCCNC(=N)N)NC(=O)[C@H](CCCNC(=N)N)NC(=O)[C@H](CCCNC(=N)N)NC(=O)[C@H](CCCNC(=N)N)NC(=O)[C@H](CCCNC(=N)N)NC(=O)[C@H](CCCNC(=N)N)NC(=O)[C@@H](N)CCCNC(=N)N)[C@@H](C)CC)[C@@H](C)CC)C(C)C)C(=O)N[C@@H](CO)C(=O)N[C@@H](CC(C)C)C(=O)N[C@@H](CCCCN)C(=O)N[C@@H](CC(C)C)C(=O)O (H-RRRRRRRRRPKIIQSVGISLKL-OH) | < 1 | 3500 | 1700 | 4600 | < 1 | – | – | – | – | –
CCCCCCCCCCCCCCCCOP(=O)([O-])OCC[N+](C)(C)C [MILTEFOSINE] | < 1 | 2000 | – | – | 9.5 | – | – | – | – | –
N=C(N)NCCC[C@H](NC(=O)[C@H](CCCNC(=N)N)NC(=O)[C@H](CCCNC(=N)N)NC(=O)[C@H](CCCNC(=N)N)NC(=O)[C@H](CCCNC(=N)N)NC(=O)[C@H](CCCNC(=N)N)NC(=O)[C@H](CCCNC(=N)N)NC(=O)[C@H](CCCNC(=N)N)NC(=O)[C@@H](N)CCCNC(=N)N)C(N)=O | – | > 25000 | > 25000 | > 25000 | – | – | – | – | – | –
CCCC[C@H](NC(=O)[C@H](CCCCN)NC(=O)[C@H](CCCC)NC(=O)[C@H](CO)NC(=O)[C@@H](NC(=O)CNC(=O)[C@H](CCCCN)NC(=O)[C@H](CO)NC(=O)[C@H](CCC(N)=O)NC(=O)[C@@H](NC(=O)[C@H](CCC(=O)O)N1CCCCC(C(=O)[C@H](CCCCN)NC(=O)[C@@H]2CCCN2C(=O)[C@H](CCCNC(=N)N)NC(=O)[C@H](CCCNC(=N)N)NC(=O)[C@H](CCCNC(=N)N)NC(=O)[C@H](CCCNC(=N)N)NC(=O)[C@H](CCCNC(=N)N)NC(=O)[C@H](CCCNC(=N)N)NC(=O)[C@H](CCCNC(=N)N)NC(=O)[C@H](CCCNC(=N)N)NC(=O)[C@@H](N)CCCNC(=N)N)CC1=O)[C@@H](C)CC)[C@@H](C)CC)C(=O)O (stereo partly specified) (I: IQSKGIS[Nle]K[Nle]-OH / II: H-RRRRRRRRRP; linker I:N-II:C via X2) | < 1 | 2800 | 2500 | 3500 | < 1 | – | – | – | – | –
CCCC[C@H](NC(=O)C[C@H](CCCCN)NC(=O)[C@H](CCCC)NC(=O)C[C@H](CO)NC(=O)[C@@H](NC(=O)C[C@H](C)NC(=O)[C@@H](NC(=O)C[C@H](CO)NC(=O)C[C@H](CCC(N)=O)NC(=O)[C@@H](NC(=O)[C@@H](NC(=O)[C@H](CCCCN)NC(=O)CC[C@@H]1CCCN1C(C)=O)[C@@H](C)CC)[C@@H](C)CC)C(C)C)[C@@H](C)CC)C(N)=O (Ac-[X1]KII[β3hQ][β3hS]V[β3hA]I[β3hS][Nle][β3hK][Nle]-NH2) | – | – | – | – | – | < 15 | inactive | 12800 | 1650 | inactive

Source: ChEMBL document CHEMBL4130478, “Improved proteolytic stability and potent activity against Leishmania infantum trypanothione reductase of α/β-peptide foldamers conjugated to cell-penetrating peptides” (Eur J Med Chem, 2017)
